Like-named read-outs stand apart in the source and are kept apart here. Blank lines part the entries; values can stand above or below the compound they belong to.
Target: CFTR (Homo sapiens, UniProt P13569)
Assay: Membrane Potential Dye, Enteroid Assay B
Assay type: cell-based
Description: Base medium (ADF+++) consisted of Advanced […], 2 mM Glutamax, 10 mM HEPES, 1 μg/mL penicillin/streptomycin.
Intestinal enteroid maintenance medium (IEMMN) consisted of ADF+++, 1× B27 supplement, 1× N2 supplement, 1.25 mM N-acetyl cysteine, 10 mM Nicotinamide, 50 ng/mL hEGF, 10 nM Gastrin, 1 μg/mL hR-spondin-1, 100 ng/mL hNoggin, TGF-b type 1 inhibitor A-83-01, 100 μg/mL Primocin, 10 μM P38 MAPK inhibitor SB202190.
Bath 1 Buffer consisted of 1 mM MgCl2, 160 mM NaCl, 4.5 mM KCl, 10 mM HEPES, 10 mM Glucose, 2 mM CaCl2).
Chloride Free Buffer consisted of 1 mM Magnesium Gluconate, 2 mM Calcium Gluconate, 4.5 mM Potassium Gluconate, 160 mM Sodium Gluconate, 10 mM HEPES, 10 mM Glucose.
Bath 1 Dye Solution consisted of Bath 1 Buffer, 0.04% Pluronic F127, 20 μM Methyl Oxonol, 30 μM CaCCinh-A01, 30 μM Chicago Sky Blue.
Chloride Free Dye Solution consisted of Chloride Free Buffer, 0.04% Pluronic F127, 20 μM Methyl Oxonol, 30 μM CaCCinh-A01, 30 μM Chicago Sky Blue.
Chloride Free Dye Stimulation Solution consisted of Chloride Free Dye Solution, 10 μM forskolin, 100 μM IBMX, and 300 nM Compound III.
Human intestinal epithelial enteroid cells were obtained from the Hubrecht Institute for Developmental Biology and Stem Cell Research, Utrecht, The Netherlands and expanded in T-Flasks as previously described (Dekkers J F, Wiegerinck C L, de Jonge H R, Bronsveld I, Janssens H M, de Winter-de Groot K M, Brandsma A M, de Jong N W M, Bijvelds M J C, Scholte B J, Nieuwenhuis E E S, van den Brink S, Clevers H, van der Ent C K, Middendorp S and M Beekman J M. A functional CFTR assay using primary cystic fibrosis intestinal organoids. Nat Med. 2013 July; 19(7):939-45.).
3. Enteroid Cell Harvesting and Seeding
Cells were recovered in cell recovery solution, collected by centrifugation at 650 rpm for 5 min at 4° C., resuspended in TrypLE and incubated for 5 min at 37° C. Cells were then collected by centrifugation at 650 rpm for 5 min at 4° C. and resuspended in IEMM containing 10 μM ROCK inhibitor (RI). The cell suspension was passed through a 40 μm cell strainer and resuspended at 1×10^6 cells/mL in IEMM containing 10 μM RI. Cells were seeded at 5000 cells/well into multi-well plates and incubated for overnight at 37° C., 95% humidity and 5% CO2 prior to assay.
5. Membrane Potential Dye, Enteroid Assay B
Enteroid cells were incubated with test compound in IEMM for 18-24 hours at 37° C., 95% humidity and 5% CO2. […] Briefly, cells were washed 5 times in Bath 1 Buffer. Bath 1 Dye Solution was added and the cells were incubated for 25 min at room temperature. Following dye incubation, cells were washed 3 times in Chloride Free Dye Solution. Chloride transport was initiated by addition of Chloride Free Dye Stimulation Solution and the fluorescence signal was read for 15 min. […] Chloride transport was then expressed as a percentage of the chloride transport following treatment with 1 μM (14S)-8-[3-(2-{Dispiro[2.0.2.1]heptan-7-yl}ethoxy)-1H-pyrazol-1-yl]-12,12-dimethyl-2λ^6-thia-3,9,11,18,23-pentaazatetracyclo[17.3.1.111,14.05,10]tetracosa-1(22),5,7,9,19(23),20-hexaene-2,2,4-trione, 3 μM (R)-1-(2,2-difluorobenzo[d][1,3]dioxol-5-yl)-N-(1-(2,3-dihydroxypropyl)-6-fluoro-2-(1-hydroxy-2-methylpropan-2-yl)-1H-indol-5-yl)cyclopropanecarboxamide and 300 nM acute N-[2,4-bis(1,1-dimethylethyl)-5-hydroxyphenyl]-1,4-dihydro-4-oxoquinoline-3-carboxamide triple combination control (% Activity).

[1] = Table 10, read-out: Ent. B EC50

Sequence of CFTR (P13569 with tags, fused parts or gaps DEL508-508): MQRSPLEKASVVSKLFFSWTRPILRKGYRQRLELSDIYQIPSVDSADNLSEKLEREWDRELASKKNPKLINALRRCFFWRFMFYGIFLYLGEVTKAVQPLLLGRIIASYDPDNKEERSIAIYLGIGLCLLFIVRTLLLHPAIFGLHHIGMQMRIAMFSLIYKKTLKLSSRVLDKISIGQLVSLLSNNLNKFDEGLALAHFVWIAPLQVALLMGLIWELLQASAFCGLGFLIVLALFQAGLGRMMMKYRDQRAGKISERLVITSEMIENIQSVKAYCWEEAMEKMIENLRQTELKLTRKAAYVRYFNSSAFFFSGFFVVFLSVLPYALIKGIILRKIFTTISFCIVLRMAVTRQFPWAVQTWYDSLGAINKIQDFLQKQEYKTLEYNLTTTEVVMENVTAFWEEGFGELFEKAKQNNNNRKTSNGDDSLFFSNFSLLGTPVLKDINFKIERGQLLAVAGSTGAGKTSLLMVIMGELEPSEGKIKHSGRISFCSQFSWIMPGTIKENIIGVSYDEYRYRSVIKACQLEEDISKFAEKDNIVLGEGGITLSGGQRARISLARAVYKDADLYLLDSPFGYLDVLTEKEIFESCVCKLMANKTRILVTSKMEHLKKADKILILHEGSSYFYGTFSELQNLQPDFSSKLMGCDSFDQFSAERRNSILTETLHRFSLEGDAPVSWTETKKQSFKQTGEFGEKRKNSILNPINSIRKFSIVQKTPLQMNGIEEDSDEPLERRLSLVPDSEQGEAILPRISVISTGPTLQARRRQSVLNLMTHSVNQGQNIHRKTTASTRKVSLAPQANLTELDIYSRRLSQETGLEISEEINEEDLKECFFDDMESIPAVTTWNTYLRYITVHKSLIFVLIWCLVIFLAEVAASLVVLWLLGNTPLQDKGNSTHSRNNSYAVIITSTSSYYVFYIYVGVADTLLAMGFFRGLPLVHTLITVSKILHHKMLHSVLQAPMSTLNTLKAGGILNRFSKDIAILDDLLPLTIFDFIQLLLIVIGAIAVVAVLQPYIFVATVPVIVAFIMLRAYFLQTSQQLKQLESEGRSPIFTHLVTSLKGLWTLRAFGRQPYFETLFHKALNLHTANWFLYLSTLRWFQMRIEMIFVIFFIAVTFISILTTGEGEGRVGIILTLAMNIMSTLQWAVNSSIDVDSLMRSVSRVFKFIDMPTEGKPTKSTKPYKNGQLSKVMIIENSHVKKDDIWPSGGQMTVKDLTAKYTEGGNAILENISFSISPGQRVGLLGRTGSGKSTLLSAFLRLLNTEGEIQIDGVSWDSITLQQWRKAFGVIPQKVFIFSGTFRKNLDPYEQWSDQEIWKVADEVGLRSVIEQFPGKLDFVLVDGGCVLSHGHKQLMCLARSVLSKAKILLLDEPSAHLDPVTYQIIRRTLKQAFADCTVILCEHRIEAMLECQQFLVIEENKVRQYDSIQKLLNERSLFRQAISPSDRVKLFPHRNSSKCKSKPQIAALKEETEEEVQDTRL

SMILES: Cc1cccc(C)c1-c1cc2nc(n1)NS(=O)(=O)c1cccc(c1)C(=O)N(C1CC(NC3CCOCC3)C1)[C@H](CC(C)C)CO2 (stereo partly drawn) [Compound 71, (11R)-6-(2,6-dimethylphenyl)-11-isobutyl-2,2-dioxo-12-[3-(tetrahydropyran-4-ylamino)cyclobutyl]-9-oxa-2λ^6-thia-3,5,12,19-tetrazatricyclo[12.3.1.14,8]nonadeca-1(18),4(19),5,7,14,16-hexaen-13-one]
Ent. B Max Activity (%) (Table 9): +++ (+++ is >60%)
EC50 (Table 9, read-out: Ent. B EC50): < 1000 nM

SMILES: Cc1cccc(C)c1-c1cc2nc(n1)NS(=O)(=O)c1cccc(c1)C(=O)N(C1CC(NC(=O)OC(C)C)C1)[C@H](CC(C)(C)C(F)(F)F)CO2 (single isomer, unassigned) [Compound 195]
Ent. B Max Activity (%) (Table 10): ++ (++ is 30-60%)
EC50 [1]: < 1000 nM

SMILES: [H][C@]1(N2C(=O)c3cccc(c3)S(=O)(=O)Nc3nc(cc(-c4c(C)cccc4C)n3)OC[C@H]2CC(C)C)C[C@@]2(C[C@H](NC(=O)CC)C2)C1 (some centres unmarked) [Compound 250]
EC50 [1]: < 1000 nM

SMILES: Cc1cccc(C)c1-c1cc2nc(n1)NS(=O)(=O)c1cccc(c1)C(=O)N(C1CC3(COC(=O)N3)C1)[C@H](CC(C)C)CO2 (some centres unmarked) [Compound 255]
Ent. B Max Activity (%) (Table 10): ++ (++ is 30-60%)
EC50 [1]: < 1000 nM

SMILES: CCC(=O)N[C@H]1C[C@]2(C1)C[C@H](N1C(=O)c3cccc(c3)S(=O)(=O)Nc3nc(cc(-c4c(C)cccc4C)n3)OC[C@H]1CC1(C(F)(F)F)CC1)C2 (some centres unmarked) [Compound 249]
Ent. B Max Activity (%) (Table 10): +++ (+++ is >60%)
EC50 [1]: < 1000 nM

SMILES: CCC(=O)NC1(C)CC(N2C(=O)c3cccc(c3)S(=O)(=O)Nc3nc(cc(-c4c(C)cccc4C)n3)OC[C@H]2CC(C)(C)C)C1 (some centres unmarked) [Compound 242]
Ent. B Max Activity (%) (Table 10): ++ (++ is 30-60%)
EC50 [1]: < 1000 nM

SMILES: Cc1cccc(C)c1-c1cc2nc(n1)NS(=O)(=O)c1cccc(c1)C(=O)N(C1CC(NC34CC(C3)C4)C1)[C@H](CC(C)C)CO2 (stereo partly drawn) [Compound 73, (11R)-12-[3-(1-Bicyclo[1.1.1]pentanylamino)cyclobutyl]-6-(2,6-dimethylphenyl)-11-isobutyl-2,2-dioxo-9-oxa-2λ^6-thia-3,5,12,19-tetrazatricyclo[12.3.1.14,8]nonadeca-1(18),4(19),5,7,14,16-hexaen-13-one]
Ent. B Max Activity (%) (Table 9): +++ (+++ is >60%)
EC50 (Table 9, read-out: Ent. B EC50): < 1000 nM

SMILES: [H][C@]1(N2C(=O)c3cccc(c3)S(=O)(=O)Nc3nc(cc(-c4c(C)cccc4C)n3)OC[C@H]2CC2(C(F)(F)F)CC2)C[C@@]2(C[C@H](NC(=O)OC(C)C)C2)C1 (stereo partly drawn) [Compound 78, Isopropyl ((2S,4s,6S)-6-((R)-1^6-(2,6-dimethylphenyl)-3,3-dioxido-5-oxo-7-((1-(trifluoromethyl)cyclopropyl)methyl)-9-oxa-3-thia-2,6-diaza-1(2,4)-pyrimidina-4(1,3)-benzenacyclononaphane-6-yl)spiro[3.3]heptan-2-yl)carbamate]
Ent. B Max Activity (%): +++ (+++ is >60%)
EC50 (read-out: Ent. B EC50): < 1000 nM

SMILES: Cc1cccc(C)c1-c1cc2nc(n1)NS(=O)(=O)c1cccc(c1)C(=O)N(C1CC3(C1)CN(C(=O)OC(C)C)C3)[C@H](CC1(C(F)(F)F)CC1)CO2 [Compound 133, Propan-2-yl 6-[(11R)-6-(2,6-dimethylphenyl)-2,2,13-trioxo-11-{[1-(trifluoromethyl)cyclopropyl]methyl}-9-oxa-2λ^6-thia-3,5,12,19-tetraazatricyclo[12.3.1.14,8]nonadeca-1(17),4,6,8(19),14(18),15-hexaen-12-yl]-2-azaspiro[3.3]heptane-2-carboxylate]
Ent. B Max Activity (%) (Table 9): +++ (+++ is >60%)
EC50 (Table 9, read-out: Ent. B EC50): < 1000 nM

SMILES: COCCN1CCC2(CC1)CC(N1C(=O)c3cccc(c3)S(=O)(=O)Nc3nc(cc(-c4c(C)cccc4C)n3)OC[C@H]1CC(C)(C)C)C2 [Compound 138, (11R)-6-(2,6-Dimethylphenyl)-11-(2,2-dimethylpropyl)-12-[7-(2-methoxyethyl)-7-azaspiro[3.5]nonan-2-yl]-2,2-dioxo-9-oxa-2λ^6-thia-3,5,12,19-tetrazatricyclo[12.3.1.14,8]nonadeca-1(18),4(19),5,7,14,16-hexaen-13-one]
Ent. B Max Activity (%): +++ (+++ is >60%)
EC50 (read-out: Ent. B EC50): < 1000 nM

SMILES: Cc1cccc(C)c1-c1cc2nc(n1)NS(=O)(=O)c1cccc(c1)C(=O)N([C@@H]1CC[C@@H]1C1CC1)[C@H](CC(C)(C)C)CO2 (racemic) [Compound 149, (11R)-12-(2-Cyclopropylcyclobutyl)-6-(2,6-dimethylphenyl)-11-(2,2-dimethylpropyl)-2,2-dioxo-9-oxa-2λ^6-thia-3,5,12,19-tetrazatricyclo[12.3.1.14,8]nonadeca-1(18),4(19),5,7,14,16-hexaen-13-one]
Ent. B Max Activity (%) (Table 10): +++ (+++ is >60%)
EC50 [1]: < 1000 nM

SMILES: Cc1cccc(C)c1-c1cc2nc(n1)NS(=O)(=O)c1cccc(c1)C(=O)N(C1CC3(COC(=O)N3)C1)[C@H](CC(C)(C)C)CO2 (single isomer, unassigned) [Compound 175]
Ent. B Max Activity (%) (Table 10): ++ (++ is 30-60%)
EC50 [1]: < 1000 nM

SMILES: [H][C@]1(N2C(=O)c3cccc(c3)S(=O)(=O)Nc3nc(cc(-c4c(C)cccc4C)n3)OC[C@H]2CCC(C)C)C[C@@]2(C[C@H](C(C)(C)O)C2)C1 (single isomer, unassigned) [Compound 4]
Ent. B Max Activity (%) (Table 10): +++ (+++ is >60%)
EC50 [1]: < 1000 nM

Now from value to compound:

Ent. B Max Activity (%): +++ (+++ is >60%)
EC50 (read-out: Ent. B EC50): < 1000 nM
SMILES: [H][C@]1(N2C(=O)c3cccc(c3)S(=O)(=O)Nc3nc(cc(-c4c(C)cccc4C)n3)OC[C@H]2CC2(C(F)(F)F)CC2)C[C@@]2(C[C@H](N(C)C)C2)C1 (some centres unmarked) [Compound 297]

EC50 (read-out: Ent. B EC50): < 1000 nM
SMILES: Cc1cccc(C)c1-c1cc2nc(n1)NS(=O)(=O)c1cccc(c1)C(=O)N(C1CC3(CCN(CCOC(C)C)CC3)C1)[C@H](CC(C)C)CO2 [Compound 300]

Ent. B Max Activity (%) (Table 9): +++ (+++ is >60%)
EC50 (Table 9, read-out: Ent. B EC50): < 1000 nM
SMILES: Cc1cccc(C)c1-c1cc2nc(n1)NS(=O)(=O)c1cccc(c1)C(=O)N([C@H]1C[C@]3(C[C@H](N(C)C(=O)OC(C)C)C3)C1)[C@H](CC1(C(F)(F)F)CC1)CO2 (some centres unmarked) [Compound 271]

Ent. B Max Activity (%) (Table 9): +++ (+++ is >60%)
EC50 (Table 9, read-out: Ent. B EC50): < 1000 nM
SMILES: Cc1cccc(C)c1-c1cc2nc(n1)NS(=O)(=O)c1cccc(c1)C(=O)N(C1CC3(CCN(C(=O)OC(C)C)CC3)C1)[C@H](CC(C)(C)C(F)(F)F)CO2 [Compound 421]

Ent. B Max Activity (%) (Table 10): +++ (+++ is >60%)
EC50 [1]: < 1000 nM
SMILES: COC(=O)NC1CC(N2C(=O)c3cccc(c3)S(=O)(=O)Nc3nc(cc(-c4c(C)cccc4C)n3)OC[C@H]2CC(C)(C)C(F)(F)F)C1 (some centres unmarked) [Compound 419]

Ent. B Max Activity (%) (Table 9): +++ (+++ is >60%)
EC50 (Table 9, read-out: Ent. B EC50): < 1000 nM
SMILES: COCCN[C@H]1C[C@@]2(C1)C[C@H](N1C(=O)c3cccc(c3)S(=O)(=O)Nc3nc(cc(-c4c(C)cccc4C)n3)OC[C@H]1CC1(C(F)(F)F)CC1)C2 (some centres unmarked) [Compound 269]

Ent. B Max Activity (%) (Table 10): ++ (++ is 30-60%)
EC50 [1]: < 1000 nM
SMILES: Cc1cccc(C)c1-c1cc2nc(n1)NS(=O)(=O)c1cccc(c1)C(=O)N(C1CC(N3CCCC3=O)C1)[C@H](CC(C)C)CO2 (some centres unmarked) [Compound 369]

Ent. B Max Activity (%) (Table 10): +++ (+++ is >60%)
EC50 [1]: < 1000 nM
SMILES: Cc1cccc(C)c1-c1cc2nc(n1)NS(=O)(=O)c1cccc(n1)C(=O)N([C@H]1C[C@@H](C(C)(C)O)C1)[C@H](CC(C)(C)C)CO2 [Compound 410]

Ent. B Max Activity (%): +++ (+++ is >60%)
EC50 (read-out: Ent. B EC50): < 1000 nM
SMILES: COC1(C)CCN(C(=O)C2CC(N3C(=O)c4cccc(c4)S(=O)(=O)Nc4nc(cc(-c5c(C)cccc5C)n4)OC[C@H]3CC(C)C)C2)CC1 (some centres unmarked) [Compound 309]

Ent. B Max Activity (%): +++ (+++ is >60%)
EC50 (read-out: Ent. B EC50): < 1000 nM
SMILES: COC(=O)N[C@H]1CC2(C1)C[C@H](N1C(=O)c3cccc(c3)S(=O)(=O)Nc3nc(cc(-c4c(C)cccc4C)n3)OC[C@H]1CC(C)C)C2 (some centres unmarked) [Compound 305]

— patent US20230382925A1, “MODULATORS OF CYSTIC FIBROSIS TRANSMEMBRANE CONDUCTANCE REGULATOR” (VERTEX PHARMACEUTICALS INCORPORATED, priority 2020, published 2023)
